{"source": "patent EP0022634A1", "about": "“Acylated indole derivatives, processes for their preparation and pharmaceutical compositions and drugs comprising them” (TEIJIN LIMITED, priority 1979, dated 1981)", "key": {"[1]": {"system": "mucous membrane of the stomach", "experiment": "Action of causing trouble to the mucous membrane of the stomach (ulcer index)", "type": "in vivo, Male S.D. rats", "conditions": "general statement on investigations of the present inventors; test not specified", "description": "Male S.D. rats (7 weeks old) were caused to fact for 24 hours while allowing them to drink water freely. A test compound dissolved in propylene glycol was orally administered to these rats, and these rats were kept while causing them to fast. Then, the rats were knocked out to death, and lesions generated in the stomach were measured in the following manner.\nTen minutes before killing the rats, 1% Evans blue was intravenously injected to the rats in a dose of 0.5 ml/rat to stain their body. Then, the rats were knocked out to death, and the stomack was taken out from each rat. 12 ml of 1% formalin was injected into the stomack to inflate it. The stomach was then dipped for more than 10 minutes in a 1% formalin solution, and fixed. After fixing, the stomach was incised along the glandular portion, and the length of a dye-leaked portion that occurred in the stomach was measured under a solid microscope, and defined as the ulcer index (mm).\nFor details of the test on the action of causing trouble to the mucous membrane of the stomach, see E. Adami, E. Marazzi-Uberti, and C. Turba, Arch, int. Pharmacadyn., 147, 113 (1964)."}, "platelet aggregation": {"system": "platelet aggregation", "experiment": "in vitro platelet aggregation inhibiting activity (sodium arachidonate as aggregating agent)", "type": "cell-based, guinea pigs", "conditions": "general statement on investigations of the present inventors; test not specified"}}}
{"smiles": "CC(C)c1[nH]c2ccccc2c1C(=O)c1cccnc1", "note": "[drawing 4, reference compound]", "values": [{"measurement": "tendency to induce ulcer formation", "setting": "[1]", "result": "unnegligible tendency to induce ulcer formation"}, {"measurement": "action of inhibiting platelet aggregation", "setting": "platelet aggregation", "result": "has an action of inhibiting platelet aggregation"}]}
